Results taken from patent US20230242530A1, “8-(AZETIDIN-1-YL)-[1,2,4]TRIAZOLO[1,5-A]PYRIDINYL COMPOUNDS, COMPOSITIONS AND METHODS OF USE THEREOF” (Genentech, Inc., priority 2016, published 2023).

Key:
[1] = target: T1, isolated recombinant JAK1 kinase domain (Homo sapiens, UniProt P23458); experiment: JAK enzyme assay, JAK1 kinase domain (Caliper LabChip); format: biochemical; settings: 1.5 nM JAK1, ATP 25 μM, Morrison tight binding model
T1 construct: isolated recombinant JAK1 and JAK2 kinase domain
How it was run: (§1)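 Recombinant kinase domains phosphorylated a 5-carboxyfluorescein-labelled JAK3-derived peptide for 30 min at 22 °C, and the reaction was stopped with EDTA (50 mM final). Product fraction was measured by Caliper LabChip mobility shift. Ki came from Morrison tight-binding fits corrected for ATP competition (Ki=Ki,app/(1+[ATP]/Km,app)).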

[2] = target: T2, isolated recombinant JAK2 kinase domain (Homo sapiens, UniProt O60674); experiment: JAK enzyme assay, JAK2 kinase domain (Caliper LabChip); format: biochemical; settings: 0.2 nM JAK2, ATP 25 μM, Morrison tight binding model
T2 construct: isolated recombinant JAK1 and JAK2 kinase domain
How it was run: as §1

[3] = test system: JAK1-dependent STAT6 phosphorylation downstream of IL-13 stimulation in BEAS-2B cells; experiment: JAK1 pathway assay in cell lines: IL-13 p-STAT6 BEAS-2B; format: cell-based; settings: BEAS-2B human bronchial epithelial cells, 1 hr compound, IL-13 15 min, MSD readout
How it was run: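 BEAS-2B cells plated a day ahead in complete growth medium; compounds added 1 hr at 37 °C (0.2% DMSO final), then IL-13 at lot-specific EC90 for 15 min at 37 °C. Phospho-STAT6 in lysates measured by MSD; EC50 is 50% inhibition relative to DMSO control.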

T2 sequence (O60674 849-1124 limits assumed): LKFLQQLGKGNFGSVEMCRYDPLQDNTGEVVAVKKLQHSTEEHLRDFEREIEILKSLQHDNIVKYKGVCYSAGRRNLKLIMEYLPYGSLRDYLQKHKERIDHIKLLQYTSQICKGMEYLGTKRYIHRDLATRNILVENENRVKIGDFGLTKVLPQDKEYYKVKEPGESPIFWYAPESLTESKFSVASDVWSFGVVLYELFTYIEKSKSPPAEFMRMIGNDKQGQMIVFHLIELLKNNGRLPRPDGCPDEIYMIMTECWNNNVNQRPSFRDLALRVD
T1 sequence (P23458 875-1153 limits assumed): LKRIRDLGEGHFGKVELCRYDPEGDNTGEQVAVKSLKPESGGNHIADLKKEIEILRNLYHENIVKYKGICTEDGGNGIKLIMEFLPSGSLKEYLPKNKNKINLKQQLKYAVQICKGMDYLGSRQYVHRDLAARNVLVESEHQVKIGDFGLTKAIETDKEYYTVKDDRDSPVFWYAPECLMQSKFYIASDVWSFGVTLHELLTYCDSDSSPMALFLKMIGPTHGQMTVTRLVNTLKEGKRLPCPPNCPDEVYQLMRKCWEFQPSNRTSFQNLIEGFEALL

Ki [1]	Ki [2]	SMILES	EC50 [3]
0.6 nM	4.6 nM	CCc1cnn(C2(CC#N)CN(c3cccn4nc(Nc5cnn(CC(=O)N6CCC(NCC7(C#N)CC7)CC6)c5)nc34)C2)c1 [Example 4, 1-[[(1-[2-[4-([8-[3-(cyanomethyl)-3-(4-ethyl-1H-pyrazol-1-yl)azetidin-1-yl]-[1,2,4]triazolo[1,5-a]pyridin-2-yl]amino)-1H-pyrazol-1-yl]acetyl]piperidin-4-yl)amino]methyl]cyclopropane-1-carbonitrile]	39 nM
0.6 nM	2.4 nM	CN1CCN(C(=O)Cn2cc(Nc3nc4c(N5CC(CC#N)(n6cc(C7CCCC7)cn6)C5)cccn4n3)cn2)CC1 [Example 49, 2-[3-(4-cyclopentylpyrazol-1-yl)-1-[2-[[1-[2-(4-methylpiperazin-1-yl)-2-oxo-ethyl]pyrazol-4-yl]amino]-[1,2,4]triazolo[1,5-a]pyridin-8-yl]azetidin-3-yl]acetonitrile]	30 nM
0.2 nM	0.2 nM	CN1CCN(C(=O)Cn2cc(Nc3nc4c(N5CC(CC#N)(n6cc(CCc7ccccc7)cn6)C5)cccn4n3)cn2)CC1 [Example 59, 2-[1-[2-[[1-[2-(4-methylpiperazin-1-yl)-2-oxo-ethyl]pyrazol-4-yl]amino]-[1,2,4]triazolo[1,5-a]pyridin-8-yl]-3-[4-(2-phenylethyl)pyrazol-1-yl]azetidin-3-yl]acetonitrile]	8 nM
1.2 nM	9.6 nM	CN1CCN(C(=O)Cn2cc(Nc3nc4c(N5CC(CC#N)(n6cc(CO)cn6)C5)cccn4n3)cn2)CC1 [Example 20, 2-[3-[4-(hydroxymethyl)pyrazol-1-yl]-1-[2-[[1-[2-(4-methylpiperazin-1-yl)-2-oxo-ethyl]pyrazol-4-yl]amino]-[1,2,4]triazolo[1,5-a]pyridin-8-yl]azetidin-3-yl]acetonitrile]	> 1000 nM
0.4 nM	1.1 nM	CC(C)(C#N)CCN1CCN(C(=O)Cn2cc(Nc3nc4c(N5CC(CC#N)(n6cc(C(F)(F)F)cn6)C5)cccn4n3)cn2)CC1 [Example 107, 4-[4-[2-[4-[[8-[3-(cyanomethyl)-3-[4-(trifluoromethyl)pyrazol-1-yl]azetidin-1-yl]-[1,2,4]triazolo[1,5-a]pyridin-2-yl]amino]pyrazol-1-yl]acetyl]piperazin-1-yl]-2,2-dimethyl-butanenitrile]	44 nM

More lines, now with the values behind:

SMILES	Ki [1]	Ki [2]	EC50 [3]
CN1CCN(C(=O)Cn2cc(Nc3nc4c(N5CC(CC#N)(N6CCC(C(F)(F)F)CC6)C5)cccn4n3)cn2)CC1 [Example 11]	1.3 nM	5.8 nM	37 nM
CCc1cnn(C2(CC#N)CN(c3cccn4nc(Nc5cnn(CC(=O)N6CCC(N(C)CC7(C#N)CC7)CC6)c5)nc34)C2)c1 [Example 45, 1-[[[1-[2-[4-[[8-[3-(cyanomethyl)-3-(4-ethylpyrazol-1-yl)azetidin-1-yl]-[1,2,4]triazolo[1,5-a]pyridin-2-yl]amino]pyrazol-1-yl]acetyl]-4-piperidyl]-methyl-amino]methyl]cyclopropane carbonitrile]	0.3 nM	0.8 nM	21 nM
COc1cnn(C2(CC#N)CN(c3cccn4nc(Nc5cn[nH]c5)nc34)C2)c1 [Example 139, 2-[3-(4-methoxypyrazol-1-yl)-1-[2-(1H-pyrazol-4-ylamino)-[1,2,4]triazolo[1,5-a]pyridin-8-yl]azetidin-3-yl]acetonitrile]	0.4 nM	0.9 nM	39 nM
CCc1cnn(C2(CC#N)CN(c3cccn4nc(Nc5ccc(C(=O)N6CCN(C)CC6)c(F)c5)nc34)C2)c1 [Example 91, 2-[3-(4-ethylpyrazol-1-yl)-1-[2-[3-fluoro-4-(4-methylpiperazine-1-carbonyl)anilino]-[1,2,4]triazolo[1,5-a]pyridin-8-yl]azetidin-3-yl]acetonitrile]	0.4 nM	0.9 nM	213 nM
